Measured values published in ChEMBL document CHEMBL3991601, “The target landscape of clinical kinase drugs” (Science, 2017).
The source made the active and inactive calls.

Tests used:
[1] = target: Dual specificity mitogen-activated protein kinase kinase 2 (Homo sapiens, UniProt P36507)
[2] = target: T1, Acyl-CoA dehydrogenase family member 10 (Homo sapiens, UniProt Q6JQN1)
T1 sequence (Q6JQN1 whole entry): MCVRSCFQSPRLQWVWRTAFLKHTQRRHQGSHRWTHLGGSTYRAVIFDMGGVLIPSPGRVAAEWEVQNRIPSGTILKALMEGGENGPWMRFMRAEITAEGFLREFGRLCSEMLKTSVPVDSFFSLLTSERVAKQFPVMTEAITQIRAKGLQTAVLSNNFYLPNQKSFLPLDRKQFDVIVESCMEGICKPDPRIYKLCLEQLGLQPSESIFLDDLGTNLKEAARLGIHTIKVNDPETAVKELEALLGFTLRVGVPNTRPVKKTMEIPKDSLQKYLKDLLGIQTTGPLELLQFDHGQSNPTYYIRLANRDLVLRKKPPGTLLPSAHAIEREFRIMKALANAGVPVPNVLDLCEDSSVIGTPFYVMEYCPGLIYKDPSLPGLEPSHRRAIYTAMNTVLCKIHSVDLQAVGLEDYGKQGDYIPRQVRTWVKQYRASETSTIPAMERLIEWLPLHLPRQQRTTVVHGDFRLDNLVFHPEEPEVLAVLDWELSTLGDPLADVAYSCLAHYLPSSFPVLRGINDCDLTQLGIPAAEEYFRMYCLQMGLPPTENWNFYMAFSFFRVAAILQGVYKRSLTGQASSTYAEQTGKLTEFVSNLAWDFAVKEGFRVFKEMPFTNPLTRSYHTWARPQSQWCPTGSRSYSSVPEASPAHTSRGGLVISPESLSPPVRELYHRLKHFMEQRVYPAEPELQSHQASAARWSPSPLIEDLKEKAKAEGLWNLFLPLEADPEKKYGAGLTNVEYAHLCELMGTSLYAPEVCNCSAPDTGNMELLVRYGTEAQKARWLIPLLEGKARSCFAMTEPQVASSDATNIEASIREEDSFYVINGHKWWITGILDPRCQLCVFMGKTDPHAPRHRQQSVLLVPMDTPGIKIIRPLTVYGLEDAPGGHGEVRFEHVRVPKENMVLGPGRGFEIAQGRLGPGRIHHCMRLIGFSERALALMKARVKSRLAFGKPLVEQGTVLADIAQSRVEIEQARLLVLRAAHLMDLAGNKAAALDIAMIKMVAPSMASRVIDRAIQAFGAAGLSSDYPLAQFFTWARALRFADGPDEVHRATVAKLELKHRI

Deoxycytidine kinase = Deoxycytidine kinase (Homo sapiens, UniProt P27707)
Deoxycytidine kinase, sequence (P27707 whole entry): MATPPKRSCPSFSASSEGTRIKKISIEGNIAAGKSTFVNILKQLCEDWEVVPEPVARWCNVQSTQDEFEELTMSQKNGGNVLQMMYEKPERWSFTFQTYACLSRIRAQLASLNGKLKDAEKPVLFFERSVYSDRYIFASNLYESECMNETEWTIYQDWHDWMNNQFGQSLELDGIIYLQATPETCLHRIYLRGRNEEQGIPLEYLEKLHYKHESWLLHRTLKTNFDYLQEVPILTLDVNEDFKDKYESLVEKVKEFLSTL

[3] = target: Insulin-like growth factor 1 receptor (Homo sapiens, UniProt P08069)
Insulin-like growth factor 1 receptor, sequence (P08069 31-736 limits assumed): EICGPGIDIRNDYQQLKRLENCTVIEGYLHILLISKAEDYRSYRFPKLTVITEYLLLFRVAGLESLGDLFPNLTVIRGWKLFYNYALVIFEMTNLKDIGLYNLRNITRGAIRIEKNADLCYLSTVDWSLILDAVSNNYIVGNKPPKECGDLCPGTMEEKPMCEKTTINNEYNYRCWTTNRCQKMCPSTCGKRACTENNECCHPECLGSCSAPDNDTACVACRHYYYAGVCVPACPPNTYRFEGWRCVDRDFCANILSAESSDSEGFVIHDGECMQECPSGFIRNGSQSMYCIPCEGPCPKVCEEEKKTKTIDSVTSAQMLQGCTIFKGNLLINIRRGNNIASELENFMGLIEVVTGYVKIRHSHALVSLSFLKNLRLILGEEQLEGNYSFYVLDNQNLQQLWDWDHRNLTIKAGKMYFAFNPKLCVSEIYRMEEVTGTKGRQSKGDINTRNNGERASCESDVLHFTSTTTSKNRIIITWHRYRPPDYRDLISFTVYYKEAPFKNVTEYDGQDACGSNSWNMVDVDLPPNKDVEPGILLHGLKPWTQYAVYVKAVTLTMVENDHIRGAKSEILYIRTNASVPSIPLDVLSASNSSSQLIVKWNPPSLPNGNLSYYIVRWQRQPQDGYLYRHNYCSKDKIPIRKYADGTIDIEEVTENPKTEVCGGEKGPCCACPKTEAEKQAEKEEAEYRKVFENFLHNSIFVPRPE
Insulin-like growth factor 1 receptor, sequence (P08069 741-1367 limits assumed): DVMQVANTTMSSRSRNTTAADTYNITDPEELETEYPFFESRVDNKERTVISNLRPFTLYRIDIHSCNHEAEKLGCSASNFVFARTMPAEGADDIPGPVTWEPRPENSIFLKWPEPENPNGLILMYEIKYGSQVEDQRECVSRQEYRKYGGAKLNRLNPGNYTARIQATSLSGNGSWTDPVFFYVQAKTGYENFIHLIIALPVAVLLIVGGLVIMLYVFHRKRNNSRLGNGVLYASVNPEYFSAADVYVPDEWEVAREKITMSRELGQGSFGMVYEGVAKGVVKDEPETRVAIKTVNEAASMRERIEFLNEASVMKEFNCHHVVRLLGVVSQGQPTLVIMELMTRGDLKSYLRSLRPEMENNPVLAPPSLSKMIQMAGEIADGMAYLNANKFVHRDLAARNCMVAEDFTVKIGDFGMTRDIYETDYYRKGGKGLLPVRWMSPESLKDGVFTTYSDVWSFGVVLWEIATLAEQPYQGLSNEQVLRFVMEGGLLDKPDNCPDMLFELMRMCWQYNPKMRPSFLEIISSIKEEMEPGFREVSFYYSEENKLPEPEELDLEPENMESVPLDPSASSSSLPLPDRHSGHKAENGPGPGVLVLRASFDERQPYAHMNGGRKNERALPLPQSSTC

Ephrin type-B receptor 2 = target: T2, Ephrin type-B receptor 2 (Homo sapiens, UniProt P29323)
T2 sequence (P29323 whole entry): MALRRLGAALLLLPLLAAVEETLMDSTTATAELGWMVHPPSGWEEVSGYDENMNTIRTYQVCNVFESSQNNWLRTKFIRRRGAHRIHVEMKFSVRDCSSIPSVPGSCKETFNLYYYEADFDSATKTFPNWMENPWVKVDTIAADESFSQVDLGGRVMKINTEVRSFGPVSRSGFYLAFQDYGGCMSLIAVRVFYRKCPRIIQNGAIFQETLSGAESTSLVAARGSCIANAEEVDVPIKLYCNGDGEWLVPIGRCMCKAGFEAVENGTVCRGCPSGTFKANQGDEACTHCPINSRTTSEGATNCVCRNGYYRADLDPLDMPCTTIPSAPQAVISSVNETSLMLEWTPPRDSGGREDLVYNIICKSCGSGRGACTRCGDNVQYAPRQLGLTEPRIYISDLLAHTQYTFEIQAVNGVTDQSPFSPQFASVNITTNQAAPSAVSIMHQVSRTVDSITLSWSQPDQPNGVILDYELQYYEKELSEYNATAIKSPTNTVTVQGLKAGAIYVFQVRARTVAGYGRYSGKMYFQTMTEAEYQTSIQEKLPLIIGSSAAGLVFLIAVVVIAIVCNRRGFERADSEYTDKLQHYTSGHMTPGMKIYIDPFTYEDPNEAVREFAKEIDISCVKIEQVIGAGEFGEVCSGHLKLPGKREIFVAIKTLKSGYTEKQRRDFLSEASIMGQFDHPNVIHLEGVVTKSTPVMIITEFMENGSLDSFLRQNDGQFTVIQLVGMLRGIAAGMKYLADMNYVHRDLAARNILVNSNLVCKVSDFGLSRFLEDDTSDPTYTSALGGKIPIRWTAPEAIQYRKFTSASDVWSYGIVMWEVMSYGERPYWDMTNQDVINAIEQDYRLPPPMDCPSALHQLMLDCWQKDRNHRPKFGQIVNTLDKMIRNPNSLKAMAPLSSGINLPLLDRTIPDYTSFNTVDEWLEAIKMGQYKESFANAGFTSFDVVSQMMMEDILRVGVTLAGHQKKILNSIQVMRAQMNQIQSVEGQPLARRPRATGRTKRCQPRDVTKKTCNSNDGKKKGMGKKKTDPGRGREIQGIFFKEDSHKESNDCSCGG
Note: in the data inactive means no Kd found up to 30 µM.

Dual specificity mitogen-activated protein kinase kinase 2, sequence (P36507 whole entry): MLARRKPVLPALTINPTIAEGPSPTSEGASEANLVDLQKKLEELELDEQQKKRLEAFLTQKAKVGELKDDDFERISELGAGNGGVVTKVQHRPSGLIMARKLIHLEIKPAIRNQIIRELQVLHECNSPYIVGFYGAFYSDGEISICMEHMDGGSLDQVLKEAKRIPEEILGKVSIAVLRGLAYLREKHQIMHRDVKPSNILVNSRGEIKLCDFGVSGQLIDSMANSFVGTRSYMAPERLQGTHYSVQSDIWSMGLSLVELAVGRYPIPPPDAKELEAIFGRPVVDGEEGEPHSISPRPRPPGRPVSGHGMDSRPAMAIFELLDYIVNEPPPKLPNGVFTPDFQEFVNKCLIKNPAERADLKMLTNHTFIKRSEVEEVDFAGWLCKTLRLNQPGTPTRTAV

Kd [1] | Kd [2] | Kd (Deoxycytidine kinase) | Kd [3] | Kd (Ephrin type-B receptor 2) | Structure (SMILES)
> 30 µM (inactive) | > 30 µM (inactive) | > 30 µM (inactive) | > 30 µM (inactive) | > 30 µM (inactive) | CN(C)C(=O)c1cc2cnc(Nc3ccc(N4CCNCC4)cn3)nc2n1C1CCCC1 [RIBOCICLIB]
> 30 µM (inactive) | > 30 µM (inactive) | > 30 µM (inactive) | > 30 µM (inactive) | > 30 µM (inactive) | Cc1cc2c(F)c(Oc3ncnn4cc(OC[C@@H](C)OC(=O)[C@H](C)N)c(C)c34)ccc2[nH]1 [BRIVANIB ALANINATE]

Structure (SMILES) | Kd [1] | Kd [2] | Kd (Deoxycytidine kinase) | Kd [3] | Kd (Ephrin type-B receptor 2)
Cc1ccc(-n2nc(C(C)(C)C)cc2NC(=O)NCc2cc(F)ccc2Oc2ccc3c(cnn3CCO)c2)cc1 [PEXMETINIB] | > 30 µM (inactive) | > 30 µM (inactive) | > 30 µM (inactive) | > 30 µM (inactive) | > 30 µM (inactive)
